Results taken from PubChem BioAssay AID1963844 (Molecular Pharmacology Branch, DTP, NCI, 2024).

System: 422866-222-R5-J1-PDC complex spheroid viability
Test: Anticancer human tumor 422866-222-R5-J1-PDC patient-derived pancreatic adenocarcinoma cell line growth inhibition [POLQ]
Details: for IC50: curve of first compound; for viability, T/C: stronger effect = lower value
In short: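 Patient-derived tumour cells were co-cultured with HUVEC and mesenchymal stem cells as multicellular spheroids at 37 °C. They were treated with POLQ inhibitors (novobiocin, ART-558, RP6685) alone or combined with other agents. Top concentrations were at or near clinical Cmax (otherwise 10 microM; SN-38 at 1 microM), decreasing in half-log steps.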

[1] = second compound 0.0316 µM, first compound 0.0316 µM
[2] = second compound 0.0316 µM, first compound 0.1 µM
[3] = second compound 0.0316 µM, first compound 0.316 µM
[4] = second compound 0.0316 µM, first compound 1 µM
[5] = second compound 0.0316 µM, first compound 3.16 µM
[6] = second compound 0.0316 µM, first compound 10 µM
[7] = second compound 0.1 µM, first compound 0.0316 µM
[8] = second compound 0.1 µM, first compound 0.1 µM
[9] = second compound 0.1 µM, first compound 0.316 µM
[10] = second compound 0.1 µM, first compound 1 µM
[11] = second compound 0.1 µM, first compound 3.16 µM
[12] = second compound 0.1 µM, first compound 10 µM
[13] = second compound 0.316 µM, first compound 0.0316 µM
[14] = second compound 0.316 µM, first compound 0.1 µM
[15] = second compound 0.316 µM, first compound 0.316 µM
[16] = second compound 0.316 µM, first compound 1 µM
[17] = second compound 0.316 µM, first compound 3.16 µM
[18] = second compound 0.316 µM, first compound 10 µM
[19] = second compound 1 µM, first compound 0.0316 µM
[20] = second compound 1 µM, first compound 0.1 µM
[21] = second compound 1 µM, first compound 0.316 µM
[22] = second compound 1 µM, first compound 1 µM
[23] = second compound 1 µM, first compound 3.16 µM
[24] = second compound 1 µM, first compound 10 µM
[25] = second compound 3.16 µM, first compound 0.0316 µM
[26] = second compound 3.16 µM, first compound 0.1 µM
[27] = second compound 3.16 µM, first compound 0.316 µM
[28] = second compound 3.16 µM, first compound 1 µM
[29] = second compound 3.16 µM, first compound 3.16 µM
[30] = second compound 3.16 µM, first compound 10 µM
[31] = second compound 10 µM, first compound 0.0316 µM
[32] = second compound 10 µM, first compound 0.1 µM
[33] = second compound 10 µM, first compound 0.316 µM
[34] = second compound 10 µM, first compound 1 µM
[35] = second compound 10 µM, first compound 3.16 µM
[36] = second compound 10 µM, first compound 10 µM
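Note: spheroids exposed to compounds for one week before readout.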
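Throughout, for viability, T/C: percent of DMSO vehicle wells luminescence so 100% = untreated viability.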

With CC1COCCN1c1cc(-c2ccnn2C)c2ccnc(-c3ccn[nH]3)c2n1 (stereo not drawn) + Nc1ccc(C#CCN(C(=O)Cc2ncc(C(F)(F)F)cc2C(F)(F)F)c2ccc(F)cc2)nn1 the IC50 (second compound 0.0316 µM) was greater than 10 µM, the IC50 (second compound 0.1 µM) was greater than 10 µM and the IC50 (second compound 0.316 µM) was greater than 10 µM. It also gave an IC50 (second compound 1 µM) of 10 µM, an IC50 (second compound 3.16 µM) of 0.232 µM and an IC50 (second compound 10 µM) greater than 10 µM. It also gave a viability, T/C [1] of 110%, a viability, T/C [2] of 52.5% and a viability, T/C [3] of 35.8%. For the same molecule, the viability, T/C [4] was 31.4%, the viability, T/C [5] was 72.4% and the viability, T/C [6] was 67.8%. For the same molecule, the viability, T/C [7] was 112%, the viability, T/C [8] was 49.3% and the viability, T/C [9] was 44.4%. It also gave a viability, T/C [10] of 37.4%, a viability, T/C [11] of 45% and a viability, T/C [12] of 81.1%. For the same molecule, the viability, T/C [13] was 90.7%, the viability, T/C [14] was 45.4% and the viability, T/C [15] was 33.7%. For the same molecule, the viability, T/C [16] was 34%, the viability, T/C [17] was 68.2% and the viability, T/C [18] was 83.4%. The viability, T/C [19] was 87%, the viability, T/C [20] was 62.4% and the viability, T/C [21] was 38.5%. It also gave a viability, T/C [22] of 29.9%, a viability, T/C [23] of 61.5% and a viability, T/C [24] of 73%. For the same molecule, the viability, T/C [25] was 96.6%, the viability, T/C [26] was 51.6% and the viability, T/C [27] was 32.6%. For the same molecule, the viability, T/C [28] was 29.8%, the viability, T/C [29] was 61.5% and the viability, T/C [30] was 74.2%. For the same molecule, the viability, T/C [31] was 102%, the viability, T/C [32] was 41.1% and the viability, T/C [33] was 39.6%. It also gave a viability, T/C [34] of 36.2%, a viability, T/C [35] of 79.8% and a viability, T/C [36] of 74.8%.

O=C(c1cc(Cc2n[nH]c(=O)c3ccccc23)ccc1F)N1CCN(C(=O)C2CC2)CC1 + Nc1ccc(C#CCN(C(=O)Cc2ncc(C(F)(F)F)cc2C(F)(F)F)c2ccc(F)cc2)nn1 was tested, and the IC50 (second compound 0.0316 µM) was greater than 10 µM, the IC50 (second compound 0.1 µM) was greater than 10 µM and the IC50 (second compound 0.316 µM) was greater than 10 µM. The IC50 (second compound 1 µM) was greater than 10 µM, the IC50 (second compound 3.16 µM) was greater than 10 µM and the IC50 (second compound 10 µM) was greater than 10 µM. The viability, T/C [1] was 86.6%, the viability, T/C [2] was 109% and the viability, T/C [3] was 88.2%. For the same molecule, the viability, T/C [4] was 97.9%, the viability, T/C [5] was 72.8% and the viability, T/C [6] was 73.6%. The viability, T/C [7] was 91.7%, the viability, T/C [8] was 95.8% and the viability, T/C [9] was 97.5%. The viability, T/C [10] was 93.8%, the viability, T/C [11] was 80.2% and the viability, T/C [12] was 61.4%. The viability, T/C [13] was 101%, the viability, T/C [14] was 103% and the viability, T/C [15] was 99.1%. It also gave a viability, T/C [16] of 102%, a viability, T/C [17] of 76.2% and a viability, T/C [18] of 65.8%. For the same molecule, the viability, T/C [19] was 105%, the viability, T/C [20] was 90.1% and the viability, T/C [21] was 105%. For the same molecule, the viability, T/C [22] was 84.5%, the viability, T/C [23] was 70.2% and the viability, T/C [24] was 53.7%. The viability, T/C [25] was 112%, the viability, T/C [26] was 109% and the viability, T/C [27] was 111%. The viability, T/C [28] was 90.3%, the viability, T/C [29] was 84.2% and the viability, T/C [30] was 65.9%. For the same molecule, the viability, T/C [31] was 96.8%, the viability, T/C [32] was 104% and the viability, T/C [33] was 131%. The viability, T/C [34] was 115%, the viability, T/C [35] was 91.9% and the viability, T/C [36] was 68.6%.

Molecule CC1COCCN1c1cc(C2(O)CC3CCC(C2)O3)c2cnn(-c3ccn[nH]3)c2n1 (stereo not drawn) + Cc1cccc(N(C)C(=O)C2C(O)CCN2c2nc(C)cc(C(F)(F)F)c2C#N)c1 has an IC50 (second compound 0.0316 µM) greater than 10 µM, an IC50 (second compound 0.1 µM) greater than 10 µM and an IC50 (second compound 0.316 µM) greater than 10 µM. It also gave an IC50 (second compound 1 µM) greater than 10 µM, an IC50 (second compound 3.16 µM) of 0.0316 µM and an IC50 (second compound 10 µM) greater than 10 µM. It also gave a viability, T/C [1] of 87.5%, a viability, T/C [2] of 42.3% and a viability, T/C [3] of 44.2%. The viability, T/C [4] was 85.3%, the viability, T/C [5] was 70.9% and the viability, T/C [6] was 73.2%. The viability, T/C [7] was 75.1%, the viability, T/C [8] was 55.5% and the viability, T/C [9] was 52.2%. The viability, T/C [10] was 79.2%, the viability, T/C [11] was 68.8% and the viability, T/C [12] was 72.2%. For the same molecule, the viability, T/C [13] was 72.5%, the viability, T/C [14] was 40.9% and the viability, T/C [15] was 52.5%. The viability, T/C [16] was 70.3%, the viability, T/C [17] was 80.7% and the viability, T/C [18] was 74.7%. For the same molecule, the viability, T/C [19] was 77.8%, the viability, T/C [20] was 44.7% and the viability, T/C [21] was 51.3%. The viability, T/C [22] was 70.6%, the viability, T/C [23] was 71.3% and the viability, T/C [24] was 92.5%. It also gave a viability, T/C [25] of 74.8%, a viability, T/C [26] of 48.1% and a viability, T/C [27] of 41.1%. The viability, T/C [28] was 95.4%, the viability, T/C [29] was 78.2% and the viability, T/C [30] was 79%. It also gave a viability, T/C [31] of 76.2%, a viability, T/C [32] of 45.2% and a viability, T/C [33] of 54.3%. It also gave a viability, T/C [34] of 85.3%, a viability, T/C [35] of 82.4% and a viability, T/C [36] of 82.6%.

With C=CC(=O)N1CCN(c2nc(=O)n(-c3c(C)ccnc3C(C)C)c3nc(-c4c(O)cccc4F)c(F)cc23)C(C)C1 (stereo not drawn) + Nc1ccc(C#CCN(C(=O)Cc2ncc(C(F)(F)F)cc2C(F)(F)F)c2ccc(F)cc2)nn1 the IC50 (second compound 0.0316 µM) was less than 0.0316 µM, the IC50 (second compound 0.1 µM) was less than 0.0316 µM and the IC50 (second compound 0.316 µM) was less than 0.0316 µM. It also gave an IC50 (second compound 1 µM) of less than 0.0316 µM, an IC50 (second compound 3.16 µM) of less than 0.0316 µM and an IC50 (second compound 10 µM) of less than 0.0316 µM. For the same molecule, the viability, T/C [1] was 32.5%, the viability, T/C [2] was 28.5% and the viability, T/C [3] was 28.3%. For the same molecule, the viability, T/C [4] was 28.5%, the viability, T/C [5] was 27.4% and the viability, T/C [6] was 23.7%. The viability, T/C [7] was 32%, the viability, T/C [8] was 31.2% and the viability, T/C [9] was 24%. The viability, T/C [10] was 25.7%, the viability, T/C [11] was 23.7% and the viability, T/C [12] was 22.4%. The viability, T/C [13] was 40.1%, the viability, T/C [14] was 27.8% and the viability, T/C [15] was 29%. For the same molecule, the viability, T/C [16] was 24.4%, the viability, T/C [17] was 25.1% and the viability, T/C [18] was 24.2%. It also gave a viability, T/C [19] of 34%, a viability, T/C [20] of 33.1% and a viability, T/C [21] of 25.9%. It also gave a viability, T/C [22] of 23.2%, a viability, T/C [23] of 22.2% and a viability, T/C [24] of 21.1%. The viability, T/C [25] was 33.4%, the viability, T/C [26] was 27.7% and the viability, T/C [27] was 29.6%. For the same molecule, the viability, T/C [28] was 24.5%, the viability, T/C [29] was 24.4% and the viability, T/C [30] was 29.1%. The viability, T/C [31] was 30.8%, the viability, T/C [32] was 32.6% and the viability, T/C [33] was 32.4%. It also gave a viability, T/C [34] of 26.3%, a viability, T/C [35] of 24.9% and a viability, T/C [36] of 27.6%.
